Target: T1, RHOGDI1-mediated extraction of CDC42 (Homo sapiens, UniProt P52565)
T1 construct: made in house; host or cells: RHOGDI1: E. coli; prenylated CDC42: insect cells (TNAO38)
Test: Liposome sedimentation assay: displacement of prenylated GDP-bound CDC42 by GST-RHOGDI1
Type: biochemical
Details: 50 μM compound
Description: Supplementary Figure S4. Compound 7a impairs RHOGDI1 function. (a) Assay setup for the liposome sedimentation assay. (b) Displacement of prenylated GDP‐bound RAC1 from synthetic liposomes by GST-RHOGDI1 in the presence or absence of 50 μM 7a was measured using liposome floatation assay. Data is representative of three independent experiments.
Liposome-containing phase represented by fluorescent colour as result of 5% fluorescent NDB-PE was analysed by Western blotting. Data are representatives of three independent […]
experiments. (c-d) Displacement of prenylated
GDP‐bound RHO GTPases (RHOA and CDC42) from synthetic liposomes by GST‐RHOGDI1 […]
liposome sedimentation assay. Data is representative of three independent experiments. P: […]
Liposome sedimentation assay
Liposomes were prepared by self-assembly of the lipids (500 μg) containing 20% (w/w) phosphatidylethanolamine, 45% (w/w) phosphatidylcholine, 20% (w/w) phosphatidylserine, 10% (w/w) cholesterol, and 5% (w/w) phosphatidylinositol 4,5-bisphosphate. […] The resulting pellet and supernatant fractions were collected and analyzed by immunoblotting. […]
The resulting samples were centrifuged at 140000 x g for 1 h at 4 °C. The upper liposome‐ containing phase (detected by fluorescent NDB‐PE) was collected and analyzed by […]

T1 sequence (P52565 whole entry): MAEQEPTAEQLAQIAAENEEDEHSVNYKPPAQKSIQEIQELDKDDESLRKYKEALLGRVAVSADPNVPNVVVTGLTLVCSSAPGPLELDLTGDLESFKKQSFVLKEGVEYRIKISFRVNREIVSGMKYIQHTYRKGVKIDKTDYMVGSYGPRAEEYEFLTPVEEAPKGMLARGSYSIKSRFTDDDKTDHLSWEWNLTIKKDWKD

Question: Which “Inhibition of RHOGDI1-mediated extraction of CDC42 (in words)” value does the source give for `COC(=O)C1(C(CC(=O)c2ccccc2)c2ccccc2)N=C(c2ccc(Br)cc2)C2C(=O)N(C)C(=O)C21` (stereo not shown) [7a] here?
Answer: inhibited

Source: publication PMC9313812, “The Pseudo‐Natural Product Rhonin Targets RHOGDI” (Angewandte Chemie (International Ed. in English), 2022)
